Results published in the RepoRT retention time repository (doi:10.1007/s11306-011-0298-z).

Test: RP, Waters ACQUITY UPLC HSS T3, 100 × 2.1 mm, 1.8 µm, 30 °C, 0.3 mL/min, estimated dead time 0.73 min; A: water + 0.1% formic acid, pH 3; B: methanol + 0.1% formic acid, pH 3; gradient (min/%B) 0/0 6/0 56/100 60/100
Details: stereoisomer not certain

| Compound | LC retention time |
| --- | --- |
| COc1cc2ccc(=O)oc2c(OC2OC(CO)C(O)C(O)C2O)c1O (configuration not stated) [fraxin] | 20.9 min |
| O=C(O)C=CC(=O)O [fumaric acid] | 3.54 min |
| O=C(O)c1ccco1 [furan-2-carboxylic acid] | 12.7 min |
| O=Cc1ccco1 [furfural] | 12.2 min |
| O=c1c(O)c(-c2ccccc2)oc2cc(O)cc(O)c12 [galangin] | 41.4 min |
| O=C(O)c1cc(O)c(O)c(O)c1 [gallic acid] | 8.95 min |
| NCCCC(=O)O [gamma-aminobutyric acid] | 2.15 min |
| NC(CCC(=O)NC(CS)C(=O)O)C(=O)O (configuration not stated) [gamma-glutamylcysteine] | 3.27 min |
| COC(=O)C1=COC(O)C2C(CO)=CCC12 (configuration not stated) [genipin] | 24.2 min |
| COc1ccc(-c2coc3cc(OC)cc(O)c3c2=O)cc1 [genistein-4,7-dimethylether] | 44.8 min |
| O=c1c(-c2ccc(O)cc2)coc2cc(O)cc(O)c12 [genistein] | 35.1 min |
| O=C(O)c1cc(O)ccc1O [gentisic acid] | 17 min |
| CC(=O)CCC=C(C)CCC=C(C)C [geranyl acetone] | 46.5 min |
| CC(C)=CCCC(C)=CCOC(=O)c1ccccc1 [geranyl benzoate] | 51.3 min |
| CC(C)=CCCC(C)=CCOC1OC(CO)C(O)C(O)C1O (configuration not stated) [geranyl glucoside] | 36.7 min |
| CC(C)=CCCC(C)=CCOC(=O)Cc1ccccc1 [geranyl phenylacetate] | 54.6 min |
| CCC(=O)OCC=C(C)CCC=C(C)C [geranyl propionate] | 48.2 min |
| C=C1CC23CC1(O)CCC2C12C=CC(O)C(C)(C(=O)O1)C2C3C(=O)O (configuration not stated) [gibberellic acid] | 25.5 min |
| O=C(O)C(O)C(O)C(O)C(O)CO (configuration not stated) [gluconic acid] | 1.4 min |
| O=P(O)(O)OCC1OC(O)C(O)C(O)C1O (configuration not stated) [glucose-6-phosphate] | 1.22 min |
| O=C(O)CCCC(=O)O [glutaric acid] | 10.2 min |
| NC(CCC(=O)NC(CSSCC(NC(=O)CCC(N)C(=O)O)C(=O)NCC(=O)O)C(=O)NCC(=O)O)C(=O)O (configuration not stated) [glutathione disulfide] | 9.68 min |
| O=C(O)C(O)CO (configuration not stated) [glyceric acid] | 1.45 min |

| Compound | LC retention time |
| --- | --- |
| NCC(=O)O [glycine] | 1.22 min |
| O=C(O)CO [glycolic acid] | 2.3 min |
| O=CC(=O)O [glyoxylic acid] | 1.3 min |
| COc1ccccc1O [guaiacol] | 22.5 min |
| N=C(N)N [guanidine] | 1.3 min |
| Nc1nc2nc[nH]c2c(=O)[nH]1 [guanine] | 3.21 min |
| COc1ccc(C2CC(=O)c3c(O)cc(O)cc3O2)cc1O (configuration not stated) [hesperetin] | 34.8 min |
| CCCCCC(=O)O [hexanoic acid] | 30.9 min |
| CCCCCCN [hexylamine] | 15.1 min |
| O=C(O)CNC(=O)c1ccccc1 [hippuric acid] | 17.3 min |
| NCCc1cnc[nH]1 [histamine] | 1.1 min |
| CC(CCC(=O)O)C1CCC2C3CC(O)C4CC(O)CCC4(C)C3CCC12C (configuration not stated) [hyodeoxycholic acid] | 46.4 min |
| O=C(O)c1cc2ccccc2[nH]1 [indole-2-carboxylic acid] | 38.5 min |
| O=C(O)c1c[nH]c2ccccc12 [indole-3-carboxylic acid] | 25.6 min |
| O=C(O)CCc1c[nH]c2ccccc12 [indole-3-propionic acid] | 30.3 min |
| O=C(O)C(=O)Cc1c[nH]c2ccccc12 [indole-3-pyruvic acid] | 30.3 min |
| c1ccc2[nH]ccc2c1 [indole] | 28.1 min |
| Oc1ccc(C2Oc3cc(O)cc4c3C2c2cc(O)cc(O)c2C(c2ccc(O)cc2)C4C2c3cc(O)cc4c3C(c3cc(O)cc(O)c3C2c2ccc(O)cc2)C(c2ccc(O)cc2)O4)cc1 (configuration not stated) [isohopeaphenol] | 25.9 min |
| CC(C)CCN [isopentylamine] | 6.9 min |
| CC(C)C(O)(CC(=O)O)C(=O)O (configuration not stated) [isopropyl malic acid] | 18.1 min |
| COc1cc(-c2oc3cc(O)cc(O)c3c(=O)c2OC2OC(CO)C(O)C(O)C2O)ccc1O (configuration not stated) [isorhamnetin 3-glucoside] | 31.5 min |
| COc1cc(-c2oc3cc(O)cc(O)c3c(=O)c2OC2OC(COC3OC(C)C(O)C(O)C3O)C(O)C(O)C2O)ccc1O (configuration not stated) [isorhamnetin 3-rutinoside] | 31.7 min |
| COc1cc(-c2oc3cc(O)cc(O)c3c(=O)c2O)ccc1O [isorhamnetin] | 37.1 min |

| Compound | LC retention time |
| --- | --- |
| COc1cc(C=Cc2cc(O)cc(OC3OC(CO)C(O)C(O)C3O)c2)ccc1O (configuration not stated) [isorhapontin] | 26.1 min |
| CCC=CCC1C(=O)CCC1CC(=O)O (configuration not stated) [jasmonic acid] | 33.7 min |
| O=C(O)C1OC(Oc2c(-c3ccc(O)cc3)oc3cc(O)cc(O)c3c2=O)C(O)C(O)C1O (configuration not stated) [kaempferol 3-O-glucuronide] | 30.7 min |
| O=c1c(OC2OC(CO)C(O)C(O)C2O)c(-c2ccc(O)cc2)oc2cc(O)cc(O)c12 (configuration not stated) [kaempferol 3-glucoside] | 31.2 min |
| CC1OC(OCC2OC(Oc3c(-c4ccc(O)cc4)oc4cc(O)cc(O)c4c3=O)C(O)C(O)C2O)C(O)C(O)C1O (configuration not stated) [kaempferol 3-rutinoside] | 31.4 min |
| O=c1c(O)c(-c2ccc(O)cc2)oc2cc(O)cc(O)c12 [kaempferol] | 36.6 min |
| CC(O)C(=O)O (configuration not stated) [lactic acid] | 2.51 min |
| CC(C)=CCCC(C)C1CCC2(C)C3=C(CCC12C)C1(C)CCC(O)C(C)(C)C1CC3 (configuration not stated) [lanosterol] | 58.3 min |
| COc1cc(-c2oc3cc(O)cc(O)c3c(=O)c2O)cc(O)c1O [laricitrin] | 34.7 min |
| CCCCCCCCCCCCCCCCCCCCCCCC(=O)O [lignoceric acid] | 60.2 min |
| C=CC(C)(CCC=C(C)C)OC(=O)c1ccccc1 (configuration not stated) [linalyl benzoate] | 50.8 min |
| CCCCC/C=C\C/C=C\CCCCCCCC(=O)O [linoleic acid] | 53.6 min |
| CCC=CCC=CCC=CCCCCCCCC(=O)O [linolenic acid] | 52.3 min |
| C=C(C)C1CCC2(C)CCC3(C)C(CCC4C5(C)CCC(O)C(C)(C)C5CCC43C)C12 (configuration not stated) [lupeol] | 60 min |
| O=c1cc(-c2ccc(O)c(O)c2)oc2cc(OC3OC(CO)C(O)C(O)C3O)cc(O)c12 (configuration not stated) [luteolin 7-glucoside] | 28.1 min |
| O=c1cc(-c2ccc(O)c(O)c2)oc2cc(O)cc(O)c12 [luteolin] | 34.7 min |
| O=C(O)C=Cc1cccc(O)c1 [m-coumaric acid] | 26.2 min |
| O=C(O)CC(=O)O [malonic acid] | 2.11 min |
| COc1cc(-c2oc3cc(=O)cc(OC4OC(CO)C(O)C(O)C4O)c-3cc2OC2OC(CO)C(O)C(O)C2O)cc(OC)c1O (configuration not stated) [malvidin-3,5-diglucoside] | 20.7 min |
| COc1cc(-c2oc3cc(=O)cc(O)c-3cc2OC2OC(CO)C(O)C(O)C2O)cc(OC)c1O (configuration not stated) [malvidin-3-galactoside] | 24.2 min |
| OCC(O)C(O)C(O)C(O)CO (configuration not stated) [mannitol] | 1.38 min |
| OCC1OC(OCC2OC(O)C(O)C(O)C2O)C(O)C(O)C1O (configuration not stated) [melibiose] | 1.4 min |
| CCCCCCCCCCCCCCCCCCCC(=O)OC [methyl arachidate] | 59.2 min |

| Compound | LC retention time |
| --- | --- |
| CCCCCCCCCCCCCCCCCCCCCC(=O)OC [methyl behenate] | 61.2 min |
| CCCCCCCC(=O)OC [methyl caprylate] | 44.2 min |
| CCCCCCCC/C=C\CCCCCCCCCC(=O)OC [methyl cis-11-eicosenoate] | 57.9 min |
| COC(=O)c1cc(O)c(O)c(O)c1 [methyl gallate] | 18.2 min |
| CCCCCCCCCCCCCCCCC(=O)OC [methyl heptadecanoate] | 57.1 min |
| CCC=CCC1C(=O)CCC1CC(=O)OC (configuration not stated) [methyl jasmonate] | 38.4 min |
| CCC=CCC=CCC=CCCCCCCCC(=O)OC [methyl linolenate] | 54.5 min |
| CCCCCCCCCCCCCC(=O)OC [methyl myristate] | 54.4 min |
| CCCCCCCCCCCCCCCCCCC(=O)OC [methyl nonadecanoate] | 58.5 min |
| CCCCCCCCC=CCCCCCCCC(=O)OC [methyl oleate] | 56.5 min |
| CCCCCCCCCCCCCCCC(=O)OC [methyl palmitate] | 56.4 min |
| CCCCCCC=CCCCCCCCC(=O)OC [methyl palmitoleate] | 54.9 min |
| CCCCCCCCCCCCCCCCCC(=O)OC [methyl stearate] | 57.8 min |
| COC(=O)CCS [methyl-3-mercaptoproprionate] | 33.8 min |
| COC1OC(C(=O)O)C(O)C(O)C1O (configuration not stated) [methyl-glucuronide] | 2.4 min |
| COc1cc(-c2oc3cc(=O)cc4oc(C)cc(c2OC2OC(CO)C(O)C(O)C2O)c43)cc(OC)c1O (configuration not stated) [methylpyrano malvidin 3-glucoside] | 28.6 min |
| COC(=O)c1ccccc1O [methylsalicylate ester] | 34.5 min |
| O=c1c(O)c(-c2ccc(O)cc2O)oc2cc(O)cc(O)c12 [morin] | 31.9 min |
| C1COCCN1 [morpholine] | 1.4 min |
| O=C(O)C(O)C(O)C(O)C(O)C(=O)O (configuration not stated) [mucic acid] | 1.3 min |
| OC1C(O)C(O)C(O)C(O)C1O (configuration not stated) [myo-inositol] | 1.22 min |
| CCCCCCC(=O)O [n-heptanoic acid] | 36.1 min |
| O=C1CC(c2ccc(O)cc2)Oc2cc(OC3OC(CO)C(O)C(O)C3O)cc(O)c21 (configuration not stated) [naringenin 7-glucoside] | 27.9 min |
